15 compounds from patent US8158638B2, “Pyrazolopyrimidine derivative” (Daiichi Sankyo Company, Limited, priority 2006, dated 2012) can be followed below.

Where two headings read alike, the source gives them in different places.

The test system of assay [1] is human lung cancer cell line NCI-H460. Description: Cell growth inhibition assay (MTT), NCI-H460. It is filed as cell-based. To be noted: read-out: GI50 value (50% growth inhibitory concentration). On the procedure:
(§1) A cell growth inhibition assay was performed using two types of cells (human breast cancer cell line SK-BR-3 and human lung cancer cell line NCI-H460).
(§2) Cells of each type were suspended in a medium and seeded into a 96-well multi-well plate at 500 cells/150 μl/well. The test compound was dissolved in DMSO, and this was diluted with medium to prepare a sample solution (DMSO concentration: 0.5% or less). On the day following the seeding, 50 μL of DMSO-containing medium to which the test compound was not added (hereinafter called DMSO diluted solution; DMSO concentration: 0.5% or less) or the sample solution was added to the cells. An MTT assay was performed immediately after and 72 hours after adding the sample solution or the DMSO diluted solution to the cells. The MTT assay was performed as follows.
(§3) 5 mg/mL of an MTT (3-(4,5-dimethylthiazol-2-yl)-2,5-diphenyltetrazolium bromide) solution was added at 20 μL per well. Thereafter, the plate was incubated at 37° C. in 5% CO2 for four hours. The plate was centrifuged at 1200 rpm for five minutes, and then the culture supernatant was removed by suction using a dispenser. DMSO was added at 150 μL per well, and the generated formazan was dissolved. The plate was stirred using a plate mixer to uniformly color the respective wells. The absorbance of each well was measured using a plate reader at an OD of 540 nm with a reference of 660 nm.
(§4) T/C (%) for each concentration was determined by the following calculation formula and a dose-response curve was drawn to calculate the 50% growth inhibitory concentration (GI50 value), based on the assumption that the OD value measured immediately after adding the sample solution was S, the OD value measured 72 hours after adding the sample solution was T, and the OD value measured 72 hours after adding the DMSO diluted solution was C. T/C(%)=(T−S)/(C−S)×100

Assay [2] deals with T1, recombinant yeast Hsp90 protein (rHsp90) (Saccharomyces cerevisiae, UniProt P02829).
T1 construct: made in house; host or cells: Escherichia coli
Description: Hsp90 ATPase assay. Format: biochemical. The settings on record: rHsp90 100 μg/mL, ATP 100 μM, 37° C., two hours, BIOMOL GREEN; read-out: IC50 value (concentration for 50% inhibition of ATP activity). As to the method: An Hsp90 ATPase assay was performed using a recombinant yeast Hsp90 protein (hereinafter called rHsp90). Yeast Hsp90 DNA was cloned from a yeast genomic DNA library according to a conventional method. The cloned yeast Hsp90 DNA was incorporated into a plasmid for expression in Escherichia coli, and the plasmid was expressed in Escherichia coli to obtain rHsp90.
The test compound was dissolved in DMSO to 10 mM. The dissolved solution was diluted with DMSO to eight concentrations ranging in three-fold dilutions from 4 mM. Each diluted solution was further 10-fold diluted with an assay buffer (100 mM Tris, pH 7.4, 20 mM KCl, 6 mM MgCl2) (concentration of each test compound solution: 400 μM, 133 μM, 44.4 μM, 14.8 μM, 4.94 μM, 1.65 μM, 0.549 μM, 0.183 μM; DMSO concentration: 10%).
rHsp90 was dissolved in a TE buffer (20 mM Tris, pH 7.4, 1 mM EDTA) to a concentration of 2.531 mg/mL. The dissolved solution was diluted with assay buffer to 125 μg/mL and dispensed to a 96-well assay plate at 40 μL per well (final concentration: 100 μg/mL).
The test compound solution was dispensed at 5 μL per well, and then the solutions in the respective wells were mixed using a plate mixer. 100 mM ATP (Sigma, Catalog No. A-7699) was diluted with assay buffer to 1 mM and dispensed at 5 μL per well (final concentration: 100 μM). The solutions in the respective wells were mixed using a plate mixer, and then the assay plate was allowed to stand in an incubator set at 37° C. for two hours.
BIOMOL GREEN Reagent (BIOMOL, Catalog No. AK-111) was dispensed at 100 μL per well, and the reaction was terminated. The solutions in the respective wells were mixed by pipetting (three times), and then 34% sodium citrate was dispensed at 10 μL per well. The solutions in the respective wells were mixed by pipetting (three times), and then the assay plate was left to stand at room temperature for 10 minutes. The absorbance at 630 nm of each well was measured with a microplate reader.
The ratio of the absorbance of the test compound-added group to the absorbance of the test compound-free group (T/C value) was determined by the following calculation formula, based on the assumption that the absorbance of the well to which the test compound and rHsp90 were added was A, the absorbance of the well to which only rHsp90 was added was B, and the absorbance of the well to which neither the test compound nor rHsp90 was added was C. T/C=(A−C)/(B−C)
Further, the concentration for 50% inhibition of ATP activity (IC50 value) was calculated using GraphPad Prism 4 (GraphPad Software, Inc.).

For assay [3], the system named is human breast cancer cell line SK-BR-3. Description: Cell growth inhibition assay (MTT), SK-BR-3. It is filed as cell-based. The settings on record: read-out: GI50 value (50% growth inhibitory concentration). On the procedure: as §1, §2, §3, §4
The mark [4] stands for this setting: Homo sapiens, NCI-H460, MTT assay, 72 hours.
[5] abbreviates: Homo sapiens, SK-BR-3, MTT assay, 72 hours.

T1 sequence (P02829 whole entry): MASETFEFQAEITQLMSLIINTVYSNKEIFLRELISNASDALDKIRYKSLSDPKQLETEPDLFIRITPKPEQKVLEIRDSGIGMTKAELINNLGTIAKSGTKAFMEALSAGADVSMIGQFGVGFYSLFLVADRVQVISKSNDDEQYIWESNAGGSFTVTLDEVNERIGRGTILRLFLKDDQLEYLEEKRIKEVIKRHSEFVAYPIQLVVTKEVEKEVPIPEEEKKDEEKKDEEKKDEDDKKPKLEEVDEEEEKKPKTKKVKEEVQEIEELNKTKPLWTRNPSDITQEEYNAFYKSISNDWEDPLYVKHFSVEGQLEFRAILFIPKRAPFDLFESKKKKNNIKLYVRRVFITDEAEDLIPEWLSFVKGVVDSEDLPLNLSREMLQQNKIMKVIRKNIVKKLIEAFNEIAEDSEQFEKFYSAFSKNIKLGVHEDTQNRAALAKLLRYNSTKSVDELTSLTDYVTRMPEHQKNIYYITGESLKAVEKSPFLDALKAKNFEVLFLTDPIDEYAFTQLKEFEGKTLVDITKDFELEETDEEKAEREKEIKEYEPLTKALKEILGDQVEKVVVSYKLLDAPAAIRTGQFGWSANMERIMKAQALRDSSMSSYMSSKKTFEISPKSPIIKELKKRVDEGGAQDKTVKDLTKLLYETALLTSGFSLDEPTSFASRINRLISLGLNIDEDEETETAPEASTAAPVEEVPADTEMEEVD

On to `CCNC(=O)CC1=Cc2nn(Cc3ncc(C)c(OC)c3C)c3nc(N)nc(c23)SC1` [Example 118, 2-{4-Amino-2-[(4-methoxy-3,5-dimethylpyridin-2-yl)methyl]-2,7-dihydro-6-thia-1,2,3,5-tetraazabenzo[cd]azulen-8-yl}-N-ethylacetamide], for which the GI50 in assay [1] (Homo sapiens, NCI-H460, 72 h) was determined as 510 nM; in assay [3] (Homo sapiens, SK-BR-3, 72 h) it was 33 nM. In assay [2], the IC50 was 610 nM.

On to `COc1c(C)cnc(Cn2nc3c4c(nc(N)nc42)SCC(CC(=O)N2CCC2)=C3)c1C` [Example 123, 8-(2-Azetidin-1-yl-2-oxoethyl)-2-[(4-methoxy-3,5-dimethylpyridin-2-yl)methyl]-2,7-dihydro-6-thia-1,2,3,5-tetraazabenzo[cd]azulen-4-amine], for which the GI50 was 71 nM in assay [1] (setting [4]) and 38 nM in assay [3] (setting [5]). In assay [2], the IC50 is 630 nM.

Turning to `COc1c(C)cnc(Cn2nc3c4c(nc(N)nc42)SCC(CCn2ccnc2)=C3)c1C` [Example 137, 8-[2-(1H-Imidazol-1-yl)ethyl]-2-[(4-methoxy-3,5-dimethylpyridin-2-yl)methyl]-2,7-dihydro-6-thia-1,2,3,5-tetraazabenzo[cd]azulen-4-amine], the GI50 in assay [1] (Homo sapiens, NCI-H460, 72 h) was determined as 200 nM; in assay [3] (Homo sapiens, SK-BR-3, 72 h) it was 67 nM. Moreover, the IC50 in assay [2] worked out at 950 nM.

Turning to `COc1c(C)cnc(Cn2nc3c4c(nc(N)nc42)SCC(CCN2CCCC2)=C3)c1C` [Example 141, 2-[(4-Methoxy-3,5-dimethylpyridin-2-yl)methyl]-8-(2-pyrrolidin-1-ylethyl)-2,7-dihydro-6-thia-1,2,3,5-tetraazabenzo[cd]azulen-4-amine], the GI50 was 260 nM in assay [1] (Homo sapiens, NCI-H460, 72 h) and 41 nM in assay [3] (Homo sapiens, SK-BR-3, 72 h). Moreover, the IC50 in assay [2] was found to be 1000 nM.

Take `COc1c(C)cnc(Cn2nc3c4c(nc(N)nc42)SCC(CCN2CCCCC2)=C3)c1C` [Example 145, 2-[(4-Methoxy-3,5-dimethylpyridin-2-yl)methyl]-8-(2-piperidin-1-ylethyl)-2,7-dihydro-6-thia-1,2,3,5-tetraazabenzo[cd]azulen-4-amine]: the GI50 in assay [1] (Homo sapiens, NCI-H460, 72 h) came to 45 nM; in assay [3] (Homo sapiens, SK-BR-3, 72 h), 19 nM. Also, the IC50 in assay [2] came to 890 nM.

On to `COc1c(C)cnc(Cn2nc3c4c(nc(N)nc42)SC=C3)c1C` [Example 151, 2-[(4-Methoxy-3,5-dimethylpyridin-2-yl)methyl]-2H-6-thia-1,2,3,5-tetraazaacenaphthylen-4-amine], for which the GI50 turned out to be 110 nM in assay [1] (Homo sapiens, NCI-H460, 72 h) and 48 nM in assay [3] (Homo sapiens, SK-BR-3, 72 h). Moreover, the IC50 in assay [2] was 890 nM.

On to `Nc1nc2c3c(nn(Cc4cc5ccccc5cn4)c3n1)CCS2` [Example 153], for which the GI50 in assay [1] (setting [4]) amounted to 5900 nM; in assay [3] (setting [5]), 2600 nM. Further, the IC50 in assay [2] came out at 1900 nM.

`COc1ccnc(Cn2nc3c4c(nc(N)nc42)SCC3)c1C` [Example 164, 2-[(4-Methoxy-3-methylpyridin-2-yl)methyl]-7,8-dihydro-2H-6-thia-1,2,3,5-tetraazaacenaphthylen-4-amine]: the GI50 was found to be 760 nM in assay [1] (setting [4]) and 410 nM in assay [3] (setting [5]). Further, in assay [2], the IC50 was 970 nM.

Regarding `Cn1c(=O)c(Cn2nc3c4c(nc(N)nc42)SCC3)cc2ccccc21` [Example 165, 3-[(4-Amino-7,8-dihydro-2H-6-thia-1,2,3,5-tetraazaacenaphthylen-2-yl)methyl]-1-methylquinolin-2(1H)-one], the GI50 amounted to 16000 nM in assay [1] (setting [4]) and 6800 nM in assay [3] (setting [5]). In addition, in assay [2], the IC50 stood at 2000 nM.

On to `Nc1nc2c3c(nn(Cc4ccc5c(c4)OCO5)c3n1)CCS2` [Example 167, 2-(1,3-Benzodioxol-5-ylmethyl)-7,8-dihydro-2H-6-thia-1,2,3,5-tetraazaacenaphthylen-4-amine], for which the GI50 was found to be 7300 nM in assay [1] (setting [4]) and 3300 nM in assay [3] (setting [5]). Further, the IC50 in assay [2] is 5400 nM.

For `COc1c(C)cnc(Cn2nc3c4c(nc(N)nc42)SC(C(=O)Nc2nccs2)C3)c1C` (stereo not drawn) [Example 191, 4-Amino-2-[(4-methoxy-3,5-dimethylpyridin-2-yl)methyl]-N-(1,3-thiazol-2-yl)-7,8-dihydro-2H-6-thia-1,2,3,5-tetraazaacenaphthylene-7-carboxamide], the figures for the GI50 in assay [1] (setting [4]) and in assay [3] (setting [5]) were 57 nM and 20 nM, respectively. Also, in assay [2], the IC50 was 1500 nM.

As for `COc1c(C)cnc(Cn2nc3c4c(nc(N)nc42)SC(C(=O)Nc2ncc(C)s2)C3)c1C` (stereo not drawn) [Example 194, 4-Amino-2-[(4-methoxy-3,5-dimethylpyridin-2-yl)methyl]-N-(5-methyl-1,3-thiazol-2-yl)-7,8-dihydro-2H-6-thia-1,2,3,5-tetraazaacenaphthylene-7-carboxamide], the results for the GI50 in assay [1] (setting [4]) and in assay [3] (setting [5]) were 37 nM and 17 nM, respectively. Moreover, the IC50 in assay [2] turned out to be 1800 nM.

As for `COc1c(C)cnc(Cn2nc3c4c(nc(N)nc42)SCC(C(=O)N2CCC(F)(F)C2)=C3)c1C` [Example 218, 8-[(3,3-Difluoropyrrolidin-1-yl)carbonyl]-2-[(4-methoxy-3,5-dimethylpyridin-2-yl)methyl]-2,7-dihydro-6-thia-1,2,3,5-tetraazabenzo[cd]azulen-4-amine], the GI50 is 160 nM in assay [1] (Homo sapiens, NCI-H460, 72 h) and 75 nM in assay [3] (Homo sapiens, SK-BR-3, 72 h). For the same compound, the IC50 in assay [2] worked out at 2300 nM.

On to `COc1c(C)cnc(Cn2nc3c4c(nc(N)nc42)SCC(c2cccnc2)=C3)c1C` [Example 223, 2-[(4-Methoxy-3,5-dimethylpyridin-2-yl)methyl]-8-pyridin-3-yl-2,7-dihydro-6-thia-1,2,3,5-tetraazabenzo[cd]azulen-4-amine], for which the GI50 in assay [1] (Homo sapiens, NCI-H460, 72 h) was found to be 250 nM; in assay [3] (Homo sapiens, SK-BR-3, 72 h), 140 nM. Further, the IC50 in assay [2] is 1100 nM.

In the case of “N^8-(S)-Cyclopropyl-2-[(4-methoxy-3,5-dimethylpyridin-2-yl)methyl]-2,7,8,9-tetrahydro-6-thia-1,2,3,5-tetraazabenzo[cd]azulene-4,8-diamine [Example 181]”, the GI50 in assay [1] (NCI-H460, MTT assay, 72 hours) was 76 nM; in assay [3] (SK-BR-3, MTT assay, 72 hours), 45 nM. Also, the IC50 in assay [2] amounted to 3100 nM.
